# According to patent US6909029B2, “Caenorhabditis elegans chemosensory bioassay for seven transmembrane receptor ligands” (SmithKline Beecham Corporation, priority 2000, dated 2005):
# Tested on: C. elegans
# Test: Consumption of GFP-expressing bacteria by a culture of C. elegans (fluorescent plate reader)
# Type: in vivo, Caenorhabditis elegans
# Description: Two cultures of C. elegans and GFP-expressing bacteria were placed in microtiter wells. In one well, a lethal concentration of 10 nanomolar ivermectin was placed. The GFP fluorescence in the wells was determined by a fluorescent plate reader instrument at the initial time, and after two days of culture.
# As the C. elegans grow and reproduce, the E. coli lawn is diminished until no bacteria remain. Therefore, the reduction of the bacterial lawn is a measurement of an actively feeding population of C. elegans. The rate of decrease of the lawn is proportional to the number of feeding animals present. […] The consumption of bacteria can be used as an indirect indicator of the distribution of animals. Substances can be spotted onto a substrate in an array, and a uniform lawn of bacteria placed on the substrate, overlaying the array. A test population of C. elegans can be introduced and incubated for a suitable time period to allow consumption of the lawn. If the animals are attracted to a substance, then they will move to that region of the substrate and the bacterial lawn will be diminished at that spot in comparison to the surrounding lawn. Conversely, if a substance repels the animals, then the bacterial lawn at that spot will not be consumed. Thus, bacterial consumption can be used to assay the growth and location of a population of nematodes. If a GFP-expressing bacterial strain is used (Chalfie, et al., supra) as was done in the experiment of Example 3, the variations in bacterial density can be easily detected, for example, by photographing fluorescence intensity.
# In this experiment, GFP-expressing bacteria are placed in two microtiter wells along with a population of C. elegans. Because the bacteria express GFP, the amount of bacteria can easily be assayed using a fluorescent plate reader (Cytoflour, Perspective Biosystems). […] Initially, both wells show equivalent levels of bacteria. […] FIG. 3 depicts this experiment. Thus, bacterial consumption can be used to assay the growth and feeding of a population of nematodes. If a GFP-expressing bacterial strain is used (Chalfie, et al., supra) as was done in the experiment shown in FIG. 3, the variations in bacterial density can be easily visualized by photographing fluorescence intensity.
substance,measurement,setting,value
ivermectin,GFP fluorescence of bacteria in the well (Relative Intensity),"10 nanomolar ivermectin, after two days of culture",GFP fluorescence increases
same,Effect on C. elegans,in vivo,kills C. elegans
same,Amount of GFP-expressing bacteria in the well,"ivermectin-containing well, after 4 days of culture",shows bacterial growth
same,Lethal concentration for C. elegans,microtiter well culture with GFP-expressing bacteria,10 nM
